Source: patent US6864217B2, “Herbicidal compositions with substituted phenylsulfonylureas for controlling weeds in rice” (Hoechst Schering AgrEvo GmbH, priority 1998, dated 2005)

Assays:
Format in all cases: in vivo
[1] = test system: Sagittaria pygmaea; test: Table 14 greenhouse trial, treatment at the 3-4 leaf stage: weed control; settings: 21 days after application
Procedure: (§1) Seeds or rhizome pieces of mono- and dicotyledonous weed plants are placed into sandy loam soil in plastic pots, covered with soil and grown in a greenhouse under good growth conditions (temperature, atmospheric humidity, water supply). Weeds which are encountered in the cultivation of rice are cultivated in pots in which the water level is up to 2 cm over the soil surface. Three weeks after sowing, the test plants are treated at the three-leaf stage. The active compound combinations according to the invention, formulated as wettable powders or emulsion concentrates, and, in parallel experiments, the correspondingly formulated individual active compounds are sprayed onto the green parts of the plants at different dosages using an amount of water of 300 to 600 l/ha (converted), and, after about 3 to 4 weeks of the test plants in the greenhouse under optimum growth conditions (temperature, atmospheric humidity, water supply), the effect of the preparations is evaluated visually in comparison to untreated controls. In the case of rice or weeds which are encountered in the cultivation of rice, the active compounds are also added directly to the water for irrigation (application analogous to the so-called granules application) or sprayed onto plants and added to the water for irrigation. The experiments were designed with several, up to five, repetitions. The herbicidal compositions according to the invention also have good herbicidal post-emergence activity against a broad spectrum of economically important weed grasses and broad-leaved weeds.
(§2) Greenhouse trial: Treatment at the 3-4 leaf stage, evaluation 21 days after the application.

[2] = test system: Oryza sativa; test: Table 14 greenhouse trial, treatment at the 3-4 leaf stage: rice damage; settings: 21 days after application
Procedure: as §1, §2

[3] = test system: Cyperus iria; test: Table 23 field trial, treatment: 4-6 leaf stage: weed control; settings: 36 days after application
Excerpt: (§3) Field trial: Treatment: 4-6 leaf stage, evaluation 36 days after the application.

[4] = test system: Oryza sativa; test: Table 23 field trial, treatment: 4-6 leaf stage: rice damage; settings: 36 days after application
Excerpt: as §3

[5] = test system: Scirpus juncoides; test: Table 10 greenhouse trial, treatment at the 1-2 leaf stage: weed control; settings: 20 days after application
Procedure: as §1
(§4) Greenhouse trial: Treatment at the 1-2 leaf stage, evaluation 20 days after the application.

[6] = test system: Oryza sativa; test: Table 10 greenhouse trial, treatment at the 1-2 leaf stage: rice damage; settings: greenhouse trial, 20 days after application
Procedure: as §1, §4

[7] = test system: Echinochloa crusgalli; test: Table 9 greenhouse trial, treatment at the 1-2 leaf stage: weed control; settings: 22 days after application
Procedure: as §1
(§5) Greenhouse trial: Treatment at the 1-2 leaf stage, evaluation 22 days after the application.

[8] = test system: Oryza sativa; test: Table 9 greenhouse trial, treatment at the 1-2 leaf stage: rice damage; settings: 22 days after application
Procedure: as §1, §5

[9] = test system: Cyperus serotinus; test: Table 16 greenhouse trial, treatment at the 2-3 leaf stage: weed control; settings: 20 days after application
Procedure: as §1
(§6) Greenhouse trail: Treatment at the 2-3 leaf stage, evaluation 20 days after the application.

[10] = test system: Oryza sativa; test: Table 16 greenhouse trial, treatment at the 2-3 leaf stage: rice damage; settings: 20 days after application
Procedure: as §1, §6

[11] = test system: Cucumis dipsaceus; test: Table 1: weed control by A1*), safener C3-1) and combination
Procedure: (§7) The examples mentioned below were carried out in the greenhouse, and in some instances, in field trials.

[12] = test system: Oryza sativa (paddy rice); test: Table 1: damage to paddy rice
Procedure: as §7

[13] = test system: Echinochloa crusgalli; test: Table 17 field trial, treatment at the 2 leaf stage: weed control; settings: 14 days after application
Excerpt: Field trial: Treatment at the 2 leaf stage, evaluation 14 days after the application.

CC1=C(c2ccccc2)C(=O)N(C(C)(C)c2cc(Cl)cc(Cl)c2)CO1 [B73), oxaziclomefone] showed an SAGPY % control ([1]; 50 g of ai/ha) of 10%, an SAGPY % control ([1]; 100 g of ai/ha) of 15% and an SAGPY % control ([1]; 200 g of ai/ha) of 20%. It also gave an ORYSW % damage ([2]; 50 g of ai/ha) of 0%, an ORYSW % damage ([2]; 100 g of ai/ha) of 0% and an ORYSW % damage ([2]; 200 g of ai/ha) of 5%.

Molecule O=C(O)c1c(Cl)ccc2cc(Cl)cnc12 [B13), 3,7-dichloro-8-quinolincarboxylic acid] has an SAGPY % control ([1]; 250 g of ai/ha) of 30%, an SAGPY % control ([1]; 500 g of ai/ha) of 30% and an SAGPY % control ([1]; 1000 g of ai/ha) of 30%. It also gave an ORYSW % damage ([2]; 250 g of ai/ha) of 0%, an ORYSW % damage ([2]; 500 g of ai/ha) of 0% and an ORYSW % damage ([2]; 1000 g of ai/ha) of 0%.

Work on CC(C)N1C(=O)c2ccccc2NS1(=O)=O [B39), 3-isopropyl-1H-2,1,3-benzothiadiazin-4(3H)-one-2,2-dioxide] yielded a CYPIR % control ([3]; 250 g of ai/ha) of 42%, a CYPIR % control ([3]; 400 g of ai/ha) of 78% and a CYPIR % control ([3]; 800 g of ai/ha) of 97%. It also gave an ORYSW % damage ([4]; 250 g of ai/ha) of 0%, an ORYSW % damage ([4]; 400 g of ai/ha) of 0% and an ORYSW % damage ([4]; 800 g of ai/ha) of 3%.

COc1cc(OC)nc(NC(=O)NS(=O)(=O)Cc2ccccc2C(=O)O)n1 [B58), 2-[[[[[(4,6-dimethoxy-2-pyrimidinyl)amino]carbonyl]-amino]sulfonyl]methyl]benzoic acid] gave an SCIJU % control ([5]; 7.5 g of ai/ha) of 35%, an SCIJU % control ([5]; 15 g of ai/ha) of 40% and an SCIJU % control ([5]; 30 g of ai/ha) of 55%. It also gave an SCIJU % control ([5]; 60 g of ai/ha) of 60%, an ORYSW % damage ([6]; 7.5 g of ai/ha) of 0% and an ORYSW % damage ([6]; 15 g of ai/ha) of 0%. For the same molecule, the ORYSW % damage ([6]; 30 g of ai/ha) was 2% and the ORYSW % damage ([6]; 60 g of ai/ha) was 5%.

For COc1cc(OC)nc(Oc2cccc(Oc3nc(OC)cc(OC)n3)c2C(=O)O)n1 [B48), sodium 2,6-bis[(4,6-dimethoxypyrimidin-2-yl)oxy]-benzoate], the ECHCG % control ([7]; 19 g of ai/ha) was 15%, the ECHCG % control ([7]; 38 g of ai/ha) was 30% and the ECHCG % control ([7]; 75 g of ai/ha) was 40%. The ORYSW % damage ([8]; 19 g of ai/ha) was 0%, the ORYSW % damage ([8]; 38 g of ai/ha) was 0% and the ORYSW % damage ([8]; 75 g of ai/ha) was 5%.

With COc1cc(OC)nc(Oc2cccc(Oc3nc(OC)cc(OC)n3)c2C(=O)ON=C(c2ccccc2)c2ccccc2)n1 [B72), pyribenzoxim] the CYPSE % control ([9]; 18.75 g of ai/ha) was 25%, the CYPSE % control ([9]; 37.5 g of ai/ha) was 35% and the CYPSE % control ([9]; 75 g of ai/ha) was 60%. It also gave an ORYSW % damage ([10]; 18.75 g of ai/ha) of 3%, an ORYSW % damage ([10]; 37.5 g of ai/ha) of 8% and an ORYSW % damage ([10]; 75 g of ai/ha) of 8%.

CCOC(=O)C1=NOC(c2ccccc2)(c2ccccc2)C1 [C3-1), ethyl 5,5-diphenyl-2-isoxazoline-3-carboxylate] showed a CUMDI % control ([11]; 15 g of ai/ha) of 0%, a CUMDI % control ([11]; 30 g of ai/ha) of 0% and a CUMDI % control ([11]; 60 g of ai/ha) of 0%. It also gave an ORYSW % damage ([12]; 15 g of ai/ha) of 0%, an ORYSW % damage ([12]; 30 g of ai/ha) of 0% and an ORYSW % damage ([12]; 60 g of ai/ha) of 0%.

With C#CCOc1cc(-n2nc(C(C)(C)C)oc2=O)c(Cl)cc1Cl [B51), 5-tert-butyl-3-[2,4-dichloro-5-(prop-2-ynyloxy)-phenyl]-1,3,4-oxadiazol-2(3H)-one] the ECHCG % control ([13]; 25 g of ai/ha) was 37%, the ECHCG % control ([13]; 50 g of ai/ha) was 63% and the ECHCG % control ([13]; 100 g of ai/ha) was 63%. For the same molecule, the ECHCG % control ([13]; 200 g of ai/ha) was 80%.
